Several values for one entry are separate records, joined by “and”; a condition that tells them apart may be missing. Identical values can stand only once. Like-named read-outs stand apart in the source and are kept apart here. One block for each compound: values may come before it.
What was measured:
[1] = Plasma pharmacokinetics after single intravenous injection of CKLP1 (LC-MS/MS); assay type: in vivo, Dutch-belted pigmented rabbits
Experimental: (§1) LC-MS/MS analysis of all fluids were performed using a Waters (Milford, MA) Acquity UPLC BEH C18 column (1.7 μm, 2.1 x 50 mm) with an Agilent EC-C18 pre-column (2.7 μm, 2.1 x 5 mm) and a gradient elution program containing ultra-pure water and acetonitrile with 2.5 mM ammonium formate, at a flow rate of 0.2 ml/min. Flavopiridol was used as an internal standard. The column and auto-sampler temperatures were maintained at 40°C and 4°C, respectively. Source parameters were capillary voltage, 2.6 kV; source temperature, 150°C; desolvation temperature, 500°C; cone gas flow, 150 L/h; and desolvation gas flow, 800 L/h. The cone voltages and collision energies for CKLP1, levcromakalim and flavopiridol were determined by MassLynx-Intellistart software, v4.1, and were 32, 34 and 72 V (cone) and 20, 14 and 30 eV (collision), respectively. The retention times were 4.5 minutes for CKLP1, 5.9 minutes for levcromakalim and 5.7 minutes for flavopiridol.
(§2) To validate accurate measurement of CKLP1 and levcromakalim, known concentrations of CKLP1 (5, 10, 25, 50, 100, 250, 500 ng/ml) and levcromakalim (1, 5, 10, 25, 50, 100, 250 ng/ml) were added to human plasma (obtained from the Mayo Clinic Division of Transfusion Medicine under an Institutional Review Board approved protocol) to make calibration curves. Quality control was determined for each run by using known quantities of CKLP1 and levcromakalim to verify that the instrument recorded values consistent with the established standard curve. The effect of carryover was evaluated by injecting blank samples before and after running the standard samples for calibration curves. Unknown samples with signal to noise ratios >10 were recorded as acceptable concentrations. Samples with signal to noise ratios <10 were reported as not detectable (ND). Controls consisted of a double blank (without analytes and internal standard) and a single blank (only internal standard). The linearity of the calibration curves was determined by plotting the ratios of analytes to internal standard peak areas. The curve was fitted by least squares regression with a 1/x weighting for both CKLP1 and levcromakalim. Data was collected from 3–6.4 minutes for CKLP1 and 4–8 minutes for both levcromakalim and flavopiridol. Waters MassLynx Intellistart software v4.1 was used for analysis.
(§3) All experiments with animals were pre-approved by the Institutional Animal Care and Use Committee of the Mayo Clinic, Rochester, MN and adhered to the recommendations in the Guide for the Care and use of Laboratory Animals of the National Institutes of Health, and the tenets of the ARVO Statement for the Use of Animals in Vision Research. Female Dutch-belted pigmented rabbits (age 7 months) were obtained from Covance Research Products, Inc. (Denver, PA). Rabbits were housed in pairs and kept in a climate controlled room with 12 h light and dark cycles. Animals had unrestrained access to water and standard rabbit food pellets at all times. Upon receipt, animals were acclimated for at least 5 days before initiation of the experiment. IOP was measured with a handheld rebound tonometer (Icare Tonovet, Colonial Medical Supply, Franconia, NH, USA) in conscious and minimally restrained, non-anesthetized rabbits as previously described. Briefly, daily IOP was calculated from the average of 3 independent IOP measurements at 3 different time points each day. These time points corresponded to 1 h, 4 h and 23 h post treatment on any given day. Rabbits that needed to be handled for IOP were subjected to sham IOP measurements for two days prior to initiation of experiment. Rabbits (n = 3) were injected intravenously through the right ear vein with CKLP1 as a bolus dose equal to 0.25 mg/kg body weight. Additional rabbits were treated topically through instillation of 50 μl eye drops of a 10 mM (4.1 mg/ml) solution of CKLP1 in sterile PBS. […]

[2] = Plasma pharmacokinetics after topical eye drops of CKLP1, days 1, 4 and 8 (LC-MS/MS); assay type: in vivo, Dutch-belted pigmented rabbits; conditions: for AUC(0-t) / Cmax / half-life / Tmax: female, Dutch-belted pigmented, rabbit, topical or ocular; for AUC(0-t) / Cmax / half-life / Tmax / Clast / Tlast: plasma; for Cmax: read-out: Cmax; for half-life: read-out: Half-life (converted); for Tmax: read-out: Tmax (converted)
Experimental: as §1, §2, §3

[3] = Concentration in aqueous and vitreous humor after topical CKLP1 for 1, 4 or 8 days (LC-MS/MS); assay type: in vivo, Dutch-belted pigmented rabbits; conditions: topical CKLP1 both eyes, days 1, 4 and 8, collected after the 24 h blood sample; for concentration at 24 h: female, Dutch-belted pigmented, rabbit
Experimental: as §1, §2, §3

[4] = Tissue and fluid distribution after 90 days of daily topical CKLP1 (LC-MS/MS); assay type: in vivo, Dutch-belted pigmented rabbits; conditions: topical eye drops 10 mM CKLP1, 90 consecutive days
Experimental: as §1, §2, §3

[5] = parameters: method as in earlier work; conditions: ref Roy Chowdhury U, Viker KB, Stoltz KL, et al. J Med Chem. 2016;59(13):6221-31; cited from earlier work
[6] = rabbit, intravenous 0.25 mg/kg CKLP1
[7] = eye drops 10 mM CKLP1 both eyes once daily, Day 4
[8] = eye drops 10 mM CKLP1 both eyes once daily, Day 8
[9] = eye drops 10 mM CKLP1 both eyes, Day 1

AUC(0-t) ([1]; female, Dutch-belted pigmented, rabbit, intravenous 0.25 mg/kg CKLP1): 120 ± 93.7 ng·h/mL
Cmax ([1]; female, Dutch-belted pigmented, rabbit, intravenous 0.25 mg/kg CKLP1, read-out: Cmax): 10.6 ± 1.2 ng/mL
half-life ([1]; female, Dutch-belted pigmented, rabbit, intravenous 0.25 mg/kg CKLP1, read-out: Half-life): 1.42 ± 0.617 h
Tmax ([1]; female, Dutch-belted pigmented, rabbit, intravenous 0.25 mg/kg CKLP1, read-out: Tmax (converted)): 1.02 h
Peak concentration (Cmax) of levcromakalim relative to CKLP1 ([1]; intravenous CKLP1, fold less than CKLP1): ~200 fold
Clast [1, 6]: 4.4 ± 4.3 ng/mL
Tlast [1, 6]: 16.0 ± 8.9 h
AUC(0-t) [2, 7]: 10.9 ± 6 ng·h/mL
Cmax [2, 7]: 0.9 ± 0.7 ng/mL
half-life [2, 7]: 25.8 ± 13.7 h
Tmax [2, 7]: 3.33 h
AUC(0-t) [2, 8]: 10.2 ± 0.3 ng·h/mL
Cmax [2, 8]: 0.6 ± 0.3 ng/mL
half-life [2, 8]: 12.2 ± 5.6 h
Tmax [2, 8]: 2.33 h
AUC(0-t) [2, 9]: 6.1 ± 2 ng·h/mL
Cmax [2, 9]: 0.4 ± 0.1 ng/mL
half-life [2, 9]: 13.2 ± 2.6 h
Tmax [2, 9]: 6.67 h
Clast [2, 7]: 0.3 ± 0.1 ng/mL
Tlast [2, 7]: 24.0 ± 0.0 h
Clast [2, 8]: 0.2 ± 0.1 ng/mL
Tlast [2, 8]: 18.7 ± 9.2 h
Clast [2, 9]: 0.1 ± 0.1 ng/mL
Tlast [2, 9]: 24.0 ± 0.0 h
Amount in plasma after topical CKLP1 ([2]; topical 10 mM CKLP1 in the eye): trace amounts
concentration at 24 h ([3]; aqueous humor, read-out: Concentration in aqueous humor): < 0.3 ng/mL
concentration at 24 h ([3]; vitreous humor, read-out: Concentration in vitreous humor): < 0.3 ng/mL
Concentration in aqueous humor [3]: low levels
Concentration in vitreous humor [3]: low levels
Concentration in Brain [4]: not detected
Concentration in Heart [4]: not detected
Concentration in Liver [4]: 5.9 ± 4.3 (n = 4/6) ng/g
Concentration in Muscle [4]: not detected
Concentration in Plasma [4]: no detectable levels
Concentration in aqueous humor [4]: 0.2 ± 0.1 (n = 4/6) ng/ml
Concentration in vitreous humor [4]: 0.1 ± 0.0 (n = 3/6) ng/ml
Concentration in Liver ([4]; listed as levcromakalim): 5.9 ± 4.3 ng/g
Concentration in aqueous humor ([4]; listed as levcromakalim): 0.2 ± 0.1 ng/mL
Concentration in vitreous humor ([4]; listed as levcromakalim): 0.1 ± 0.0 ng/mL
Compound: CC1(C)Oc2ccc(C#N)cc2[C@@H](N2CCCC2=O)[C@@H]1O [Levcromakalim, levcromakalim, reference compound]
Concentration in Lung [4]: 1.5 ± 0.0 ng/g and 1.5 ± 0.0 (n = 6/6) ng/g

Compound: CC1(C)Oc2ccc(C#N)cc2C(N2CCCC2=O)C1O (stereo not drawn) [Cromakalim, cromakalim, reference compound]
Solubility in water [5]: insoluble in water

From paper PMC7162492, “Pharmacological and pharmacokinetic profile of the novel ocular hypotensive prodrug CKLP1 in Dutch-belted pigmented rabbits” (PLoS ONE, 2020)
